Data reported in US8293215B2, “Flavour modulating derivative of a carboxylic acid and a purine, pyrimidine, nucleoside, or nucleotide” (Givaudan Nederland Services B.V., priority 2006, dated 2012).

Experiments:
[1] = system: professional sensory panel; experiment: aqueous solutions in 0.5% salt and 0.05% MSG tasted by a professional sensory panel; type: in vivo
Procedure: Six aqueous solutions were prepared: A. 0.5% salt and 0.05% MSG The solutions were tasted by a professional sensory panel. Three aqueous solutions were prepared: A. 0.5% salt and 0.05% MSG The solutions were tasted by a professional sensory panel. Solution A was described as: “salty”. […] Three aqueous solutions were prepared: A. 0.5% salt and 0.05% MSG The solutions were tasted by a professional sensory panel. Solution A was described as: “salty” and “umami”.

[2] = system: sensory panel; experiment: tomato soups (10 g powder in 100 ml hot water) tasted and evaluated by a sensory panel; type: in vivo; settings: for perceived saltiness versus product A (control) / taste description: 50% reduced salt
Procedure: [table] 10 Gram of each composition was mixed with 100 ml hot water to obtain tomato soups. The different soups were tasted and evaluated by a sensory panel.

[3] = system: sensory panel; experiment: sweetened 0% fat red fruit yoghurts tasted and evaluated by a sensory panel; type: in vivo
Procedure: Three yoghurts were prepared according to the recipe in table 2. [table] All products were tasted and evaluated by a sensory panel.

[4] = cited from earlier work; for pungency: compared with capsaicin; for taste: as a dry powder and as an alcoholic or aqueous solution
[5] = product D: 0.3 mg per 100 g tomato soup powder
[6] = Yoghurt C: 0.15 microgram per 100 g yoghurt
[7] = 0.1 ppt in 0.5% salt and 0.05% MSG (Example 4, solution C)
[8] = 1 ppb in 0.5% salt and 0.05% MSG (Example 3, solution E)
[9] = 10 ppt in 0.5% salt and 0.05% MSG (Example 4, solution D)
[10] = 30 ppb in 0.5% salt and 0.05% MSG (Example 3, solution F)
[11] = product C: 0.005 mg per 100 g tomato soup powder
[12] = Yoghurt B: 0.003 microgram per 100 g yoghurt

## CC(O)C(=O)Nc1nc2c(ncn2[C@@H]2O[C@H](COP(=O)(O)O)[C@@H](O)[C@H]2O)c(=O)[nH]1 (stereo partly drawn) [lactoyl-GMP, reference compound]
[1]; 0.6 ppb in 0.5% salt and 0.05% MSG
  taste description: “sweet”, “lingering umami”, “more salivating”
[1]; 0.6 ppb in 0.5% salt and 0.05% MSG (Example 3, solution D)
  taste strength compared with solution C (0.2 ppm process flavour containing 0.3% lactoyl-GMP): stronger than C
[2]; [5]
  preference versus product B (50% reduced salt): clearly preferred over product B
  perceived saltiness versus product A (control): comparable to that of product A
  taste description: “more taste”, “more impact”, “more kokumi”, “long lasting” and “salivating”
[3]; [6]
  preference versus product A (yoghurt without modulator): clearly preferred over product A
  taste description: sweet, fuller, more natural berry-like, fruity and more balanced flavour

## p-tolylvanillylthiourea
[4]
  pungency: property of pungency but to a lesser degree than capsaicin

## COc1cc(CNC(N)=O)ccc1O [Vanillylurea]
[4]
  taste: tasteless

## phenylvanillylthiourea
[4]
  taste: tasteless
  pungency: property of pungency but to a lesser degree than capsaicin

## COc1cc(CNC(N)=S)ccc1O [vanillylthiourea]
[4]
  taste: tasteless

## CC(=O)Nc1nc2c(ncn2[C@@H]2O[C@H](COP(=O)(O)O)[C@@H](O)[C@H]2O)c(=O)[nH]1 [acetyl-GMP, N-acetyl-GMP]
[1]; [7]
  share of the panel that found this detectable: 40%
  taste description: “sweet”, “umami”
[1]; [8]
  taste description: “salivating”, “salty”
  taste strength compared with solution D (0.6 ppb lactoyl-GMP): stronger than D
[1]; 1 ppt in 0.5% salt and 0.05% MSG (Example 8, solution C)
  taste description: “sweet”, “umami”
[1]; [9]
  share of the panel that found this detectable: 100%
  strength of the taste compared with solution B (0.6 ppb lactoyl-GMP): comparable
  taste description: “sweet”, “umami”
[1]; [10]
  taste description: “salivating”, “salty”
  taste strength compared with solution E (1 ppb acetyl-GMP): stronger than E
[2]; [11]
  preference versus product B (50% reduced salt): clearly preferred over product B
  perceived saltiness versus product A (control): comparable to that of product A
  taste description: “more taste”, “more impact”, “more kokumi”, “long lasting” and “salivating”
[3]; [12]
  preference versus product A (yoghurt without modulator): clearly preferred over product A
  strength compared with product C (0.15 microgram lactoyl-GMP per 100 g): comparable
  taste description: sweet, fuller, more natural berry-like, fruity and more balanced flavour

## o-tolylvanillylthiourea
[4]
  pungency: property of pungency but to a lesser degree than capsaicin

## Nc1nc2c(ncn2[C@@H]2O[C@H](COP(=O)(O)O)[C@@H](O)[C@H]2O)c(=O)[nH]1 [GMP, guanosine 5′-monophosphate, reference compound]
[1]; 1 ppm in 0.5% salt and 0.05% MSG (Example 3, solution B)
  taste description: “sweet”, “lingering umami”
